Patent US7919101B2 (priority 2008, dated 2011)
Read-outs that look alike come from different tables or passages of the source.

Key:
[1] = test system: HIV-1 NL4-3D36G; test: Inhibition of infection by T-20-sensitive strain NL4-3D36G; assay type: cell-based; conditions: NL4-3D36G
Protocol: (§1) 2. Inhibition of HIV infection as measured by luciferase assay. The inhibitory activity of fusion/entry inhibitors on HIV infection in TZM-bl cells was determined by using a luciferase assay (Wei X et al. Antimicrob. Agents Chemother. 46:1896-1905, 2002). Briefly, 50 μl of a compound at graded concentration in triplicate were incubated with an equal volume of an HIV-1 isolate at 0.01 multiplicity of infection (MOI) at 37° C. for 30 min, followed by addition of the mixture to 100 μl TZM-bl cells (1×10^5/ml) that were pre-cultured in a 96-well plate at 37° C. overnight. After further culture at 37° C. for 3 days, the cells were harvested and lyzed with 50 μl lysing reagent. The luciferase activity was analyzed using a luciferase kit (Promega Corp.) and a luminometer (Model: Ultra […], Tecan) according to the manufacture's instruction. The percent inhibition of cell fusion by a compound as well as EC50 and EC90 values were calculated using the software CalcuSyn.
(§2) 3. Inhibition of HIV replication as measured by p24 antigen production. The inhibitory activity of fusion/entry inhibitors on HIV-1 infection as measured by p24 antigen production was determined as previously described (Zhao Q et al. AIDS Res Hum Retroviruses 18:989-997, 2002). In brief, 1×10^4 MT-2 cells were infected with an HIV-1 strain (100 TCID50) in 200 μl RPMI 1640 medium containing 10% FBS in the presence or absence of testing compounds at graded concentrations overnight. Then the culture supernatants were removed and fresh media containing no testing compounds were added. On the fourth day post-infection, 100 μl of culture supernatants were collected from each well, mixed with equal volumes of 5% Triton X-100 and assayed for p24 antigen, which was quantitated by ELISA. Briefly, wells of polystyrene plates were coated with HIV immunoglobulin (HIVIG, prepared from plasma of HIV-seropositive donors with high neutralizing titers against HIV-1IIIB), in 0.085 M carbonate-bicarbonate buffer (pH 9.6) at 4° C. overnight, followed by washes with washing buffer (0.01 M PBS containing 0.05% Tween-20) and blocking with PBS containing 1% dry fat-free milk. Virus lysates were added to the wells and incubated at 37° C. for 1 hr. […] Reactions were terminated by addition of 1N H2SO4. Absorbance at 450 nm was recorded in an ELISA reader (Ultra 384, TECAN). Recombinant protein p24, purchased from US Biological, was included for establishing standard dose response curves. Each sample was tested in triplicate. The percentage of inhibition of p24 production was calculated as previously described (Neurath A R et al. BMC Infect Dis 2:6, 2002).
(§3) 4. Synergy analysis. […] In all analyses, HIV fusion/entry inhibitors were assumed to act noncompetitively, which led to a more conservative estimate of synergy. CI values<1 and >1 indicate synergy and antagonism, respectively. Dose reductions were calculated as the compound concentrations required for inhibition of HIV-1 replication when the compound was used alone and in combination. The statistic analysis was performed by the One-Way Analysis of Variance (One-Way ANOVA) method using Origin 6.1 software.

[2] = test system: HIV-1 RU570 (clade G, R5); test: Inhibition of infection by primary HIV-1 isolate RU570; assay type: cell-based
Protocol: (§4) Inhibitory activity of fusion/entry inhibitors on infection by a primary HIV-1 isolate was determined as previously described (Jiang S et al. Antimicrob Agents Chemother 48:4349-4359, 2004). Peripheral blood mononuclear cells (PBMCs) were isolated from the blood of healthy donors by standard density gradient centrifugation using Histopaque-1077 (Sigma). The cells were plated in 75 cm^2 plastic flasks and incubated at 37° C. for 2 hrs. The nonadherent cells were collected and resuspended at 5×10^6 in 10 ml RPMI-1640 medium containing 10% FBS, 5 μg/ml PHA (phytohemagglutinin) and 100 U/ml IL-2 (Sigma), followed by incubation at 37° C. for 3 days. The PHA-stimulated cells were infected with a primary HIV-1 isolates at 0.01 MOI in the absence or presence of a compound at graded concentrations. Culture media were changed every 3 days. The supernatants were collected 7 days post-infection and tested for p24 antigen by ELISA as described above. The percent inhibition of p24 production and EC50 values were calculated as described above.
as §3

[3] = test system: HIV-1 93IN101 (subtype C, R5)
Protocol: as §4, §3

[4] = test system: HIV-1 NL4-3(36G)V38A/N42D
Protocol: as §1, §2, §3

[5] = test system: HIV-1 NL4-3(36G)V38E/N42S
Protocol: as §1, §2, §3

[6] = test system: HIV-1 BaL (subtype B, R5)
Protocol: as §1, §2, §3

[7] = test system: HIV-1 NL4-3(36G)V38A
Protocol: as §1, §2, §3

[8] = test system: HIV-1 IIIB (subtype B, X4)
Protocol: as §1, §2, §3

[9] = read-out: EC50 alone, peptide alone
[10] = read-out: EC50 in mixture, T-20+T-1249+T-1144 80:1:1
[11] = read-out: EC50 in mixture, T-20 combined with T-1144, ratios 80:1:1
[12] = read-out: EC50 in mixture, T-20 combined with T-1249, ratios 80:1:1

enfuvirtide
Dose reduction ([1]; T-20+T-1249+T-1144 7:5:1): 18.61 fold | Dose reduction ([1]; T-20 combined with T-1144): 15.53 fold | Dose reduction ([1]; T-20 combined with T-1249): 6.48 fold | EC50 ([2]; RU570 (G, R5) primary isolate, peptide alone, read-out: EC50 alone): 38.4 nM | Dose reduction ([2]; RU570, T-20+T-1249+T-1144 4:1:1): 8.47 fold | EC50 ([2]; RU570, T-20+T-1249+T-1144 4:1:1, read-out: EC50 in mixture): 4.54 nM | Dose reduction ([2]; RU570, T-20 combined with T-1144): 7.41 fold | EC50 ([2]; RU570, T-20 combined with T-1144, ratios 4:1:1, read-out: EC50 in mixture): 5.19 nM | EC50 ([2]; RU570, T-20 combined with T-1249, ratios 4:1:1, read-out: EC50 in mixture): 5.98 nM | Dose reduction ([3]; 93IN101, T-20+T-1249+T-1144 4:1:1): 15.70 fold | Dose reduction ([3]; 93IN101, T-20 combined with T-1144): 9.30 fold | Dose reduction ([3]; 93IN101, T-20 combined with T-1249): 10.90 fold | EC50 ([3]; read-out: EC50 alone, 93IN101 (C, R5) primary isolate, peptide alone): 39.9 nM | EC50 ([3]; read-out: EC50 in mixture, 93IN101, T-20+T-1249+T-1144 4:1:1): 2.54 nM | EC50 ([3]; read-out: EC50 in mixture, 93IN101, T-20 combined with T-1144, ratios 4:1:1): 4.29 nM | EC50 ([3]; read-out: EC50 in mixture, 93IN101, T-20 combined with T-1249, ratios 4:1:1): 3.66 nM | Dose reduction ([4]; T-20+T-1249+T-1144 80:1:1): 67.90 fold | Dose reduction ([4]; T-20 combined with T-1144): 13.17 fold | Dose reduction ([4]; T-20 combined with T-1249): 11.56 fold | EC50 [4, 9]: 2650 nM | EC50 [4, 10]: 39 nM | EC50 [4, 11]: 201 nM | EC50 [4, 12]: 229 nM | Dose reduction ([5]; T-20+T-1249+T-1144 3000:200:1): 24.12 fold | Dose reduction ([5]; T-20 combined with T-1144): 2.64 fold | Dose reduction ([5]; T-20 combined with T-1249): 13.51 fold | EC50 [5, 9]: 9890 nM | EC50 ([5]; read-out: EC50 in mixture, T-20+T-1249+T-1144 3000:200:1): 410 nM | EC50 ([5]; read-out: EC50 in mixture, T-20 combined with T-1144, ratios 3000:200:1): 3750 nM | EC50 ([5]; read-out: EC50 in mixture, T-20 combined with T-1249, ratios 3000:200:1): 733 nM | Dose reduction ([6]; Bal, T-20+T-1249+T-1144 2:1:1): 280.67 fold | Dose reduction ([6]; Bal, T-20 combined with T-1144): 20.05 fold | Dose reduction ([6]; Bal, T-20 combined with T-1249): 11.53 fold | EC50 ([6]; read-out: EC50 alone, Bal (B, R5), peptide alone): 8.42 nM | EC50 ([6]; read-out: EC50 in mixture, Bal, T-20+T-1249+T-1144 2:1:1): 0.03 nM | EC50 ([6]; read-out: EC50 in mixture, Bal, T-20 combined with T-1144, ratios 2:1:1): 0.42 nM | EC50 ([6]; read-out: EC50 in mixture, Bal, T-20 combined with T-1249, ratios 2:1:1): 0.73 nM | Dose reduction ([7]; T-20+T-1249+T-1144 80:1:1): 37.76 fold | Dose reduction ([7]; T-20 combined with T-1144): 16.78 fold | Dose reduction ([7]; T-20 combined with T-1249): 23.03 fold | EC50 [7, 9]: 313 nM | EC50 [7, 10]: 8.29 nM | EC50 [7, 11]: 18.6 nM | EC50 [7, 12]: 13.6 nM | Dose reduction ([8]; IIIB, T-20+T-1249+T-1144 16:4:1): 71.04 fold | Dose reduction ([8]; IIIB, T-20 combined with T-1144): 5.11 fold | Dose reduction ([8]; IIIB, T-20 combined with T-1249): 3.32 fold | EC50 ([8]; read-out: EC50 alone, IIIB (B, X4), peptide alone): 50.4 nM | EC50 ([8]; read-out: EC50 in mixture, IIIB, T-20+T-1249+T-1144 16:4:1): 0.71 nM | EC50 ([8]; read-out: EC50 in mixture, IIIB, T-20 combined with T-1144, ratios 16:4:1): 9.88 nM | EC50 ([8]; read-out: EC50 in mixture, IIIB, T-20 combined with T-1249, ratios 16:4:1): 15.2 nM
